This series can be described thus: oral administration of norphenephrine and its salts to users: metabolic, appetite, mental and addiction effects. Format: in vivo, human.

Structures are written as SMILES.

As for `NCC(O)c1cccc(O)c1` (centres unmarked) [norphenephrine, Norphenephrine], the “time until the user experiences a vastly reduced appetite for food” value (after intake) was at most 30 min. Besides, the “interaction with caffeine (metabolic enhancement)” value (co-administration of caffeine) is “synergy between caffeine and norphenephrine is observed”. The “addictive / habituating nature” value (even at high dosages, compared with amphetamines) was “not addictive, or even habituating”. Moreover, where the note is “in vivo”, the “adipose tissue loss versus lean body mass” value was “specifically enhance the loss of adipose tissue while preserving lean body mass”; the “focus, acuity and psychological outlook” value was “sustained and noticeable effect”; the overall metabolic rate entry is “increase a user's overall metabolic rate”. Under “muscle tissue apart from adipose tissue”, the insulin sensitivity result was “specifically increase insulin sensitivity in muscle tissue”. Moreover, for the setting “no changes to the user's current diet and exercise regimen”, the fat mass result is “noticeable and quantifiable decrease in fat mass”.
